# From patent publication US8669233B2, “Combination of compounds for treating or preventing skin diseases” (Galderma Research & Development, priority 2009, dated 2014)
# Experiments:
# [1] = tested on: arachidonic acid-induced mouse ear edema; test: Arachidonic acid-induced mouse ear edema test, single topical application; format: in vivo, Balb/c mice; conditions: 4% arachidonic acid
# Procedure: Evaluation of the Anti-Inflammatory Activity of Ivermectin and of Brimonidine after a Single Topical Application in the Arachidonic Acid-Induced Mouse Ear Edema Test on Balb/c Mice
# Arachidonic acid is dissolved in a mixture of THF/methanol at 4%.
# Ivermectin is dissolved in the solution of arachidonic acid (AA) and tested at the concentration of 1%.
# 20 μl of the solution are applied to the internal surface of the right ear.
# The thickness of the ear is measured at T+1 h, T+2 h and T+4 h.
# FIG. 1 represents the average measurement of the thickness of the ear edema, i.e. the average measurement of the thickness of the ear after treatment, from which is subtracted the average measurement of the thickness of the ear obtained with the control (nontreated) group, this being after treatment with 4% arachidonic acid ( ? ), 1% ivermectin (□), 0.2% brimonidine ( ? ), and the combination of ivermectin and brimonidine ( ? ).
# [2] = tested on: TPA-induced mouse ear edema; test: TPA-induced mouse ear edema test, single topical application; format: in vivo, Balb/c mice; conditions: TPA 0.01%, T+6 h; for reduction in the ear edema (TPA): single topical application
# Procedure: The test compounds are diluted in the TPA solution. […] Brimonidine is added at the concentration of 0.2%. […] FIG. 2 represents the average measurement of the ear edema thickness as a function of the dose of test compound as %, i.e. the average measurement of the ear thickness after treatment, from which is subtracted the average measurement of the thickness of the ear obtained with the control (nontreated) group, […]
compound,measurement,setting,value
COc1ccc2c(c1)c(CC(=O)O)c(C)n2C(=O)c1ccc(Cl)cc1 [Indomethacin],inhibition of the ear edema caused by arachidonic acid,"[1]; indomethacin at 5%, topical, Balb/c mice",95%
Brc1c(NC2=NCCN2)ccc2nccnc12 [brimonidine],reduction of the mouse ear edema (TPA),[2]; brimonidine alone 0.2%,50%
"CCCCC(=O)O[C@]1(C(=O)CO)[C@@H](C)C[C@H]2[C@@H]3CCC4=CC(=O)C=C[C@]4(C)[C@@]3(F)[C@@H](O)C[C@@]21C [β-methasone valerate (BMV), β-methasone valerate]",inhibition of the mouse ear edema (TPA),[2]; BMV at 0.01%,89%
Ivermectin,reduction of the ear edema caused by arachidonic acid,"[1]; ivermectin alone 1%, single topical application",56%
same,reduction in the ear edema (TPA),[2]; ivermectin 0.3%,57%
same,reduction in the ear edema (TPA),[2]; ivermectin 1%,90%
